Test results from US20260027068A1, “METHODS OF ADM[…]-KETAMINE” (Perception Neuroscience, Inc., priority 2022, published 2026).

System: subjects with TRD
Test: MADRS total score after a single 40-minute IV infusion, double-blind placebo-controlled study in TRD
Format: in vivo, human
Conditions: for Change from Baseline MADRS Total Score, Adjusted mean (SE) / Diff. Adjusted mean (SE) R(−)ketamine - Placebo: MMRM
Experimental: This was a double-blind, randomized, placebo-controlled, multicenter study comprised of 3 phases: screening (up to 2 weeks [day-15 to day-2]), in-clinic treatment (day-1 to day 2; including double-blind treatment [day 1]), and post-treatment follow-up (7 and 14 days after infusion on days 8 and 15, respectively). The study consisted of 3 arms: placebo, R(−)-ketamine solution (30 mg), and R(−)-ketamine solution (60 mg.) A total of 101 adult subjects with TRD were randomly allocated in cohorts of 33-35 subjects/arm to the 3 arms of the study in a blinded manner.
The subjects were randomized within 14 days of screening (Visit 1). Subjects were admitted to the clinic the evening prior to study treatment administration (day-1, Visit 2) and underwent baseline testing to ensure continued study eligibility. Study treatments were infused IV over 40 minutes the next morning (day 1, Visit 2). Starting immediately prior to dosing, subjects were monitored closely for safety.
To determine the efficacy of two doses (30 mg and 60 mg) of intravenous (IV) R(−)-ketamine hydrochloride, the doses were administered as an IV infusion over 40 minutes. These doses are within the range shown to be well-tolerated in a Phase 1 study in healthy volunteers. […] The 10-item clinician-administered MADRS was designed to be used in subjects with MDD to measure the overall severity of depressive symptoms. The MADRS scale is validated, reliable, and acceptable to regulatory health authorities as a primary scale to determine efficacy in major depression.
Population: Subjects with TRD in the full analysis set (FAS) and analyzed according to their randomized treatment. The analysis population includes all randomized subjects who receive any amount of study treatment and have at least one postbaseline assessment available. Variable: Change in total MADRS score from baseline at 24 hours after the start of infusion.
MADRS total score was assessed at 2 and 4 hours, 7 and 14 days after the start of the infusion (days 8 and 15, respectively). Note, for the 2-hour and 4-hour recall periods, the sleep and appetite items were not assessed.
Proportion of subjects with ≥50% improvement in MADRS total score at 24 hours, 7 days, and 14 days after start of infusion (days 8 and 15, respectively).
Proportion of subjects with a MADRS total score≤10 at 24 hours, 7 days, and 14 days after start of infusion (days 8 and 15, respectively).
The 10-item MADRS was administered by the study staff to measure the overall severity of depressive symptoms. The MADRS total score was assessed at screening and baseline (Day 1 pre-dose). The primary efficacy endpoint of improvement in the MADRS total score was evaluated prior to discharge on Day 2 of Visit 2, 24 hours after the start of the infusion of study treatment. The MADRS total score was also assessed at 2 hours, 4 hours, 7 days (on Day 8), and 14 days (on Day 15) after the start of the infusion to evaluate the secondary efficacy endpoints of response (defined as ≥50% improvement in the MADRS total score from pre-dose) and remission (defined as MADRS total score≤10) in the improvement of depressive symptoms in the subjects. While the MADRS is typically used with a 7-day recall period, versions of the MADRS including 2-hour and […] recall periods were used in this study. (For the 2 hour and 4 hour periods, the sleep and appetite items were […]; pre-dose scores for these items obtained on the same day were carried forward).
The change from baseline in MADRS scores was summarized separately by treatment arm for each visit. Associated baseline scores were taken as the last corresponding measurement prior to the first dose of IMP in the treatment period (i.e., Visit 2, pre-dose). The primary endpoint of change from baseline MADRS total score at 24 hours post start of infusion was evaluated using a mixed effects model for repeated measure (MMRM) analysis with observed cases only. […]

[1] = 30 mg, Day 1, 24 hours, primary endpoint
[2] = 60 mg, Day 1, 24 hours, primary endpoint

`CN[C@@]1(c2ccccc2Cl)CCCCC1=O.Cl` [R(−)-ketamine, (2R)-2-(2-chlorophenyl)-2-(methylamino)cyclohexan-1-one] was tested, and the “MADRS total score, Mean” value (30 mg, 2 hours) was 20.7, the “MADRS total score, Median” value (30 mg, 2 hours) was 21.0 and the “MADRS total score, Mean” value (30 mg, 4 hours) was 19.2. For the same molecule, the “MADRS total score, Median” value (30 mg, 4 hours) was 19.0, the “MADRS total score, Mean” value (30 mg, 24 hours (Day 2)) was 16.7 and the “MADRS total score, Median” value (30 mg, 24 hours (Day 2)) was 13.0. The “Not-responder, %” value (30 mg, Day 1, 2 hours) was 72.7%, the “Responder (>=50% improvement of MADRS total score), %” value (30 mg, Day 1, 2 hours) was “(27.3) %” and the “adjusted odds ratio R-ket/placebo (95% CI)” value (30 mg, Day 1, 2 hours) was 1.667 (0.503, 5.520). The “Change from Baseline MADRS Total Score, Adjusted mean (SE)” value (“Change … (SE)” below) (30 mg, Day 1, 2 hours) was −9.7 (1.35), the “Diff. Adjusted mean (SE) R(−)ketamine - Placebo” value (30 mg, Day 1, 2 hours) was −0.6 (1.85) [−4.24, 3.08] and the “Not-responder, %” value (30 mg, Day 1, 4 hours) was 72.7%. The “Responder (>=50% improvement of MADRS total score), %” value (30 mg, Day 1, 4 hours) was “(27.3) %”, the “adjusted odds ratio R-ket/placebo (95% CI)” value (30 mg, Day 1, 4 hours) was 0.963 (0.317, 2.928) and the “Change … (SE)” value (30 mg, Day 1, 4 hours) was −11.2 (1.36). For the same molecule, the “Diff. Adjusted mean (SE) R(−)ketamine - Placebo” value (30 mg, Day 1, 4 hours) was −0.1 (1.86) [−3.81, 3.56], the “Not-responder, %” value (30 mg, Day 1, 24 hours) was 42.4% and the “Responder (>=50% improvement of MADRS total score), %” value (30 mg, Day 1, 24 hours) was “(57.6) %”. The “adjusted odds ratio R-ket/placebo (95% CI)” value (30 mg, Day 1, 24 hours) was 1.418 (0.524, 3.837), the “Change … (SE)” value [1] was −13.7 (1.75) and the “Diff. Adjusted mean (SE) R(−)ketamine - Placebo” value [1] was −0.0 (2.42) [−4.84, 4.77]. For the same molecule, the “MADRS total score, Mean” value (30 mg, Day 8) was 19.9, the “MADRS total score, Median” value (30 mg, Day 8) was 22.0 and the “Not-responder, %” value (30 mg, Day 8) was 70.0%. For the same molecule, the “Responder (>=50% improvement of MADRS total score), %” value (30 mg, Day 8) was “(30.0) %”, the “adjusted odds ratio R-ket/placebo (95% CI)” value (30 mg, Day 8) was 1.040 (0.336, 3.212) and the “Change … (SE)” value (30 mg, Day 8) was −10.4 (1.81). The “Diff. Adjusted mean (SE) R(−)ketamine - Placebo” value (30 mg, Day 8) was 1.0 (2.51) [−4.01, 5.94], the “MADRS total score, Mean” value (30 mg, Day 15) was 22.8 and the “MADRS total score, Median” value (30 mg, Day 15) was 24.0. The “Not-responder, %” value (30 mg, Day 15) was 83.9%, the “Responder (>=50% improvement of MADRS total score), %” value (30 mg, Day 15) was “(16.1) %” and the “adjusted odds ratio R-ket/placebo (95% CI)” value (30 mg, Day 15) was 0.621 (0.169, 2.282). For the same molecule, the “Change … (SE)” value (30 mg, Day 15) was −7.5 (1.82), the “Diff. Adjusted mean (SE) R(−)ketamine - Placebo” value (30 mg, Day 15) was 2.4 (2.53) [−2.62, 7.40] and the “MADRS total score change from baseline, Mean” value (30 mg, to 2 hours) was −8.8. The “MADRS total score change from baseline, Median” value (30 mg, to 2 hours) was −7.0, the “MADRS total score change from baseline, Mean” value (30 mg, to 4 hours) was −10.4 and the “MADRS total score change from baseline, Median” value (30 mg, to 4 hours) was −10.0. The “MADRS total score change from baseline, Mean” value (30 mg, to 24 hours) was −12.8, the “MADRS total score change from baseline, Median” value (30 mg, to 24 hours) was −15.0 and the “MADRS total score change from baseline, Mean” value (30 mg, to Day 8) was −9.8. The “MADRS total score change from baseline, Median” value (30 mg, to Day 8) was −7.0, the “MADRS total score change from baseline, Mean” value (30 mg, to Day 15) was −6.6 and the “MADRS total score change from baseline, Median” value (30 mg, to Day 15) was −5.0. For the same molecule, the “MADRS total score, Mean” value (60 mg, 2 hours) was 18.4, the “MADRS total score, Median” value (60 mg, 2 hours) was 20.0 and the “MADRS total score, Mean” value (60 mg, 4 hours) was 17.6. The “MADRS total score, Median” value (60 mg, 4 hours) was 18.0, the “MADRS total score, Mean” value (60 mg, 24 hours (Day 2)) was 15.1 and the “MADRS total score, Median” value (60 mg, 24 hours (Day 2)) was 16.0. For the same molecule, the “Not-responder, %” value (60 mg, Day 1, 2 hours) was 68.6%, the “Responder (>=50% improvement of MADRS total score), %” value (60 mg, Day 1, 2 hours) was “(31.4) %” and the “adjusted odds ratio R-ket/placebo (95% CI)” value (60 mg, Day 1, 2 hours) was 2.031 (0.634, 6.504). For the same molecule, the “Change … (SE)” value (60 mg, Day 1, 2 hours) was −12.0 (1.31), the “Diff. Adjusted mean (SE) R(−)ketamine - Placebo” value (60 mg, Day 1, 2 hours) was −2.9 (1.82) [−6.55, 0.67] and the “Not-responder, %” value (60 mg, Day 1, 4 hours) was 62.9%. For the same molecule, the “Responder (>=50% improvement of MADRS total score), %” value (60 mg, Day 1, 4 hours) was “(37.1) %”, the “adjusted odds ratio R-ket/placebo (95% CI)” value (60 mg, Day 1, 4 hours) was 1.536 (0.534, 4.416) and the “Change … (SE)” value (60 mg, Day 1, 4 hours) was −12.8 (1.32). For the same molecule, the “Diff. Adjusted mean (SE) R(−)ketamine - Placebo” value (60 mg, Day 1, 4 hours) was −1.7 (1.83) [−5.34, 1.92], the “Not-responder, %” value (60 mg, Day 1, 24 hours) was 54.3% and the “Responder (>=50% improvement of MADRS total score), %” value (60 mg, Day 1, 24 hours) was “(45.7) %”. The “adjusted odds ratio R-ket/placebo (95% CI)” value (60 mg, Day 1, 24 hours) was 0.847 (0.318, 2.254), the “Change … (SE)” value [2] was −15.3 (1.69) and the “Diff. Adjusted mean (SE) R(−)ketamine - Placebo” value [2] was −1.6 (2.38) [−6.35, 3.11]. For the same molecule, the “MADRS total score, Mean” value (60 mg, Day 8) was 17.7, the “MADRS total score, Median” value (60 mg, Day 8) was 21.0 and the “Not-responder, %” value (60 mg, Day 8) was 65.7%. For the same molecule, the “Responder (>=50% improvement of MADRS total score), %” value (60 mg, Day 8) was “(34.3) %”, the “adjusted odds ratio R-ket/placebo (95% CI)” value (60 mg, Day 8) was 1.202 (0.412, 3.511) and the “Change … (SE)” value (60 mg, Day 8) was −12.7 (1.72). For the same molecule, the “Diff. Adjusted mean (SE) R(−)ketamine - Placebo” value (60 mg, Day 8) was −1.4 (2.44) [−6.26, 3.45], the “MADRS total score, Mean” value (60 mg, Day 15) was 19.3 and the “MADRS total score, Median” value (60 mg, Day 15) was 22.0. For the same molecule, the “Not-responder, %” value (60 mg, Day 15) was 65.7%, the “Responder (>=50% improvement of MADRS total score), %” value (60 mg, Day 15) was “(34.3) %” and the “adjusted odds ratio R-ket/placebo (95% CI)” value (60 mg, Day 15) was 1.715 (0.559, 5.263). For the same molecule, the “Change … (SE)” value (60 mg, Day 15) was −11.1 (1.73), the “Diff. Adjusted mean (SE) R(−)ketamine - Placebo” value (60 mg, Day 15) was −1.2 (2.46) [−6.09, 3.69] and the “MADRS difference from placebo” value (60 mg, day 15) was ~2 point. For the same molecule, the “Statistical significance of the MADRS difference from placebo” value (60 mg, day 15) was “not statistically significant”, the “MADRS total score change from baseline, Mean” value (60 mg, to 2 hours) was −11.3 and the “MADRS total score change from baseline, Median” value (60 mg, to 2 hours) was −10.0. The “MADRS total score change from baseline, Mean” value (60 mg, to 4 hours) was −12.1, the “MADRS total score change from baseline, Median” value (60 mg, to 4 hours) was −12.0 and the “MADRS total score change from baseline, Mean” value (60 mg, to 24 hours) was −14.5. For the same molecule, the “MADRS total score change from baseline, Median” value (60 mg, to 24 hours) was −14.0, the “MADRS total score change from baseline, Mean” value (60 mg, to Day 8) was −12.0 and the “MADRS total score change from baseline, Median” value (60 mg, to Day 8) was −10.0. The “MADRS total score change from baseline, Mean” value (60 mg, to Day 15) was −10.4 and the “MADRS total score change from baseline, Median” value (60 mg, to Day 15) was −6.0.
